Results taken from patent US20260035339A1, “TETRAHYDRONAPHTHALENE DERIVATIVE” (ATRANSEN PHARMA LTD., priority 2022, published 2026).

What was measured:
Format in all cases: cell-based
human LAT1 [1] = biological target: T1, human LAT1 (Homo sapiens, UniProt Q01650); experiment: [14C]L-leucine uptake inhibition test using human-LAT1 stably expressing HEK293 cell line; set-up: having full-length cDNA of human LAT1 or LAT2 inserted under a promoter of CMV; expressed in transfected cells; key to Assay Data: degree of [14C]L-leucine uptake inhibition compared with BCH: a test compound having a higher inhibitory effect than BCH is denoted by A; a test compound having the same inhibitory effect as BCH is denoted by B; a test compound having a lower inhibitory effect than BCH is denoted by C; details: for Assay Data: degree of [14C]L-leucine uptake inhibition compared with BCH: compound (racemic form) and BCH at 0.1, 1.0, 10 μM, 1 μM [14C]L-leucine, 1 minute, Na+-free HBSS
T1 sequence (Q01650 whole entry): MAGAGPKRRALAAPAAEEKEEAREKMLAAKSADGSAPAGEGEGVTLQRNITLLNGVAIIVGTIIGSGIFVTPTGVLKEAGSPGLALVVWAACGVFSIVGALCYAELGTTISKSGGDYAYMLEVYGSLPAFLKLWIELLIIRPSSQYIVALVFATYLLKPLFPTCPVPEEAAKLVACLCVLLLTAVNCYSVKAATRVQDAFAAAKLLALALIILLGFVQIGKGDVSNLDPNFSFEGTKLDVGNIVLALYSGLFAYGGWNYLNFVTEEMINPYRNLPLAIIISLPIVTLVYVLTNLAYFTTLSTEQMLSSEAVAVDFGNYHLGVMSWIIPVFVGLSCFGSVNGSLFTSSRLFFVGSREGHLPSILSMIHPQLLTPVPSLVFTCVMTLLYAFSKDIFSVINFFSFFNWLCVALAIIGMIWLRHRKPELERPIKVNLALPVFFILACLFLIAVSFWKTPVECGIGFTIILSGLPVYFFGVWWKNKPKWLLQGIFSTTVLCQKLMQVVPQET
T1 sequence (P08195 102-630 partner): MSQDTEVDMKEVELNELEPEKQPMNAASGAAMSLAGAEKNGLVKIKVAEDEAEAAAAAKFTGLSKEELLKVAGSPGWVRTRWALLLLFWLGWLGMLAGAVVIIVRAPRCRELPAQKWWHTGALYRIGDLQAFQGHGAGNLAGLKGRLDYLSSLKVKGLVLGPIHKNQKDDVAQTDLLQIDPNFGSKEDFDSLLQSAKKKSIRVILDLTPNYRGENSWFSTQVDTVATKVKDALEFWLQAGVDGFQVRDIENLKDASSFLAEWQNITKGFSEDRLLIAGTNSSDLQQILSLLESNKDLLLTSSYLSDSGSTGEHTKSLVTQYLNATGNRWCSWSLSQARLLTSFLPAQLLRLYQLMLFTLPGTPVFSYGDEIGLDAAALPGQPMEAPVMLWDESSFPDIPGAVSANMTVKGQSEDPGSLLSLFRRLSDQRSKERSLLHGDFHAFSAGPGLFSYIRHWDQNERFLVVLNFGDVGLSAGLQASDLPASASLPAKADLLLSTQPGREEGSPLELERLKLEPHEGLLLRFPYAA
Description: HEK293 cells stably expressing human LAT1 and LAT2 were produced, respectively.
A shuttle vector DNA (LAT1: pcDNA3.1(+) -hLAT1, LAT2: pcDNA3.1(+) -hLAT2; expression vector pcDNA3.1 (+) was produced by Invitrogen Corp.) having ampicillin and neomycin resistance markers and having full-length cDNA of human LAT1 or LAT2 inserted under a promoter of CMV (cytomegalovirus) was constructed. This vector was transfected into the HEK293 cells by a method using Lipofectamine (registered trademark) 2000 (Invitrogen Corp.) according to the manufacturer's instructions. Thereafter, stably expressing cell clones of transgene were selected by a limiting dilution method in the presence of 0.9 mg/mL of Geneticin (registered trademark), and among the obtained cell clones, cell clones having a high uptake of [^14C]L-leucine and maintaining stable expression even after 10 passages were obtained. These cells were used for evaluating affinity and selectivity for LAT1 and LAT2.
1-1. It has been confirmed that LAT1 is responsible for L-leucine uptake in the absence of sodium ions in the human-LAT1 stably expressing HEK293 cell line. The human-LAT1 stably expressing HEK293 cell line was seeded in a 24-well plate at 1×10^5 Cell/Well, and the [^14C]L-leucine uptake inhibition test using the compound was performed after 48 hours. After the medium was removed and the cells were washed with Hank's balanced salt solution (Na^+-free HBSS) not containing sodium ions, the cells were cultured in Na^+-free HBSS for 10 minutes. Thereafter, 1 μM of [^14C]L-leucine was taken up in Na^+-free HBSS in the presence of a test compound (0.1, 1.0, 10, 0 μM in each case), which is a racemic form, for 1 minute, and then the cells were washed three times with ice-cooled Na^+-free HBSS. To the well, 500 μL of 1 M NaOH was added, and after 30 minutes, the cells were lysed, and the cell lysate was collected. The amount of [^14C]L-leucine in the cell lysate was determined using a liquid scintillator. The amount of protein in the cell lysate was measured using BCA Assay Kit (Thermofisher Scientific), and the uptake amount of [^14C]L-leucine per 1 mg of protein in the cell per minute was calculated.
The degree of LAT1 inhibition of the compound obtained in the present invention was compared with BCH (BCH, 2-aminobicyclo-(2,2,1)-heptane-2-carboxylic acid), which is an existing LAT1 inhibitor. In the [^14C]L-leucine uptake inhibition test described above, the degrees of inhibition of [^14C]L-leucine uptake inhibition using the compound (racemic form) obtained in Examples and BCH (0.1, 1.0, 10, 0 μM for both) were compared. […] In the table, a test compound having a higher inhibitory effect than BCH is denoted by A, a test compound having the same inhibitory effect as BCH is denoted by B, and a test compound having a lower inhibitory effect than BCH is denoted by C.

human LAT1 [2] = biological target: T1, human LAT1; experiment: Leucine uptake persistence inhibitory effect after compound removal in human-LAT1 highly expressing cell line; details: 20 μM compound for 30 minutes, removed, uptake measured 30 minutes later
Procedure: The uptake of [^14C]L-leucine remaining after the compound of the present invention was caused to act in advance and removed in the human-LAT1 highly expressing cell line was examined. In the same manner as in the uptake inhibition test, the cell line was seeded in a 24-well plate, and an MEM (Minimum Essential Medium) medium containing 20 μM of the compound (racemic form) was added to the wells and allowed to act for 30 minutes. An MEM medium containing no compound was used as a control. After the compound was caused to act, the cells were washed 3 times with the MEM medium and cultured in the MEM medium for an additional 30 minutes. Thereafter, washing was performed 3 times with Na^+Free-HBSS, and 1 μM of [^14C]L-leucine dissolved in Na^+Free-HBSS was taken up for 1 minute. The cells were washed 3 times with ice-cooled Na^+Free-HBSS, and the amount of [^14C]L-leucine taken up in the cells was determined with a liquid scintillator. In the same manner as in other tests, the amount of protein in the cell fluid was measured, and the uptake amount of [^14C]L-leucine per 1 mg of protein in the cell fluid per minute was determined.

[3] = system: Mouse colorectal cancer-derived CT26 cells; experiment: Cell proliferation inhibitory effect using mouse colorectal cancer cells (CCK-8 assay); details: 72 hours compound treatment, read-out: Evaluation of IC50 (proliferation inhibition rate of 50%)
Procedure: Mouse colorectal cancer-derived CT26 cells were adjusted to […], seeded in a 96-well plate at 1000 cells/well, and cultured in a 10% fetal bovine serum-added RPMI 1640 medium at 5% CO2 and 37° C. The culture medium was changed 24 hours after the start of the culture, and the medium containing the compound of Example was replaced to examine the action of the compound on cell proliferation. As the compound, a concentration of 0.01, 0.03, 0.1, 0.3, 1, 3, 10, or 30 μM was used. As a control, the cells were cultured in a medium containing no compound. The number of cells was evaluated by CCK-8 assay (Cell Counting Kit-8, DOJINDO LABORATORIES) 72 hours after the start of the compound treatment, and the compound concentration (IC50 value) giving a proliferation inhibition rate of 50% as compared with the control was calculated.

## Cl.NC1(C(=O)O)CCc2ccc(Oc3ccccc3-c3cccc(F)c3)cc2C1 (stereo not drawn) [Example 1-30, 2-carboxy-7-((3′-fluoro-[1,1′-biphenyl]-2-yl)oxy)-1,2,3,4-tetrahydronaphthalene-2-aminium chloride]
Human LAT1 [1]
  Assay Data: degree of [14C]L-leucine uptake inhibition compared with BCH: A
Human LAT1 [2]
  sustained LAT1 inhibitory effect as compared with Example 1-1: more remarkable effect
[3]
  IC50: ≤ 0.9 µM

## Cl.NC1(C(=O)O)CCc2ccc(Oc3ccccc3-c3cccc(Cl)c3)cc2C1 (stereo not drawn) [Example 1-33, 2-carboxy-7-((3′-chloro-[1,1′-biphenyl]-2-yl)oxy)-1,2,3,4-tetrahydronaphthalene-2-aminium chloride]
Human LAT1 [1]
  Assay Data: degree of [14C]L-leucine uptake inhibition compared with BCH: A
Human LAT1 [2]
  sustained LAT1 inhibitory effect as compared with Example 1-1: more remarkable effect
[3]
  IC50: ≤ 0.9 µM

## Cl.NC1(C(=O)O)CCc2ccc(Oc3ccccc3-c3cccc4ccccc34)cc2C1 (stereo not drawn) [Example 1-35, 2-Carboxy-7-(2-(naphthalen-1-yl)phenoxy)-1,2,3,4-tetrahydronaphthalene-2-aminium chloride]
Human LAT1 [1]
  Assay Data: degree of [14C]L-leucine uptake inhibition compared with BCH: A
Human LAT1 [2]
  sustained LAT1 inhibitory effect as compared with Example 1-1: more remarkable effect
[3]
  IC50: ≤ 0.9 µM

## Cl.NC1(C(=O)O)CCc2ccc(Oc3ccccc3-c3cccc([N+](=O)[O-])c3)cc2C1 (stereo not drawn) [Example 1-42, 2-carboxy-7-((3′-nitro-[1,1′-biphenyl]-2-yl)oxy)-1,2,3,4-tetrahydronaphthalene-2-aminium chloride]
Human LAT1 [1]
  Assay Data: degree of [14C]L-leucine uptake inhibition compared with BCH: A
Human LAT1 [2]
  sustained LAT1 inhibitory effect as compared with Example 1-1: more remarkable effect
[3]
  IC50: ≤ 0.9 µM

## Cc1cccc(-c2ccccc2Oc2ccc3c(c2)CC(N)(C(=O)O)CC3)c1.Cl (stereo not drawn) [Example 1-43, 2-carboxy-7-((3′-methyl-[1,1′-biphenyl]-2-yl)oxy)-1,2,3,4-tetrahydronaphthalene-2-aminium chloride]
Human LAT1 [1]
  Assay Data: degree of [14C]L-leucine uptake inhibition compared with BCH: A
Human LAT1 [2]
  sustained LAT1 inhibitory effect as compared with Example 1-1: more remarkable effect
[3]
  IC50: ≤ 0.9 µM

## Cc1cccc2cccc(Oc3ccc4c(c3)CC(N)(C(=O)O)CC4)c12.Cl (stereo not drawn) [Example 1-46, 2-carboxy-7-((8-methylnaphthalen-1-yl)oxy)-1,2,3,4-tetrahydronaphthalene-2-aminium chloride]
Human LAT1 [1]
  Assay Data: degree of [14C]L-leucine uptake inhibition compared with BCH: A
Human LAT1 [1]; same test as Table 1
  LAT1 inhibitory effect, compounds singled out (in words): particularly remarkable effects
Human LAT1 [2]
  sustained LAT1 inhibitory effect as compared with Example 1-1: more remarkable effect
[3]
  IC50: ≤ 0.9 µM

## Cl.NC1(C(=O)O)CCc2ccc(Oc3ccccc3-c3cc(F)cc(F)c3)cc2C1 (stereo not drawn) [Example 1-65, 2-Carboxy-7-((3′,5′-difluoro-[1,1′-biphenyl]-2-yl)oxy)-1,2,3,4-tetrahydronaphthalene-2-aminium chloride]
Human LAT1 [1]
  Assay Data: degree of [14C]L-leucine uptake inhibition compared with BCH: A
[3]
  IC50: ≤ 0.9 µM

## Cl.NC1(C(=O)O)CCc2ccc(Oc3ccccc3-c3cc(F)cc(Cl)c3)cc2C1 (stereo not drawn) [Example 1-66, 2-Carboxy-7-((3′-chloro-5′-fluoro-[1,1′-biphenyl]-2-yl)oxy)-1,2,3,4-tetrahydronaphthalene-2-aminium chloride]
Human LAT1 [1]
  Assay Data: degree of [14C]L-leucine uptake inhibition compared with BCH: A
[3]
  IC50: ≤ 0.9 µM

## NC1(C(=O)O)CCc2ccc(Oc3ccccc3-c3cc(F)cc(Cl)c3Cl)cc2C1 (stereo not drawn) [Example 1-67, 2-carboxy-7-((2′,3′-dichloro-5′-fluoro-[1,1′-biphenyl]-2-yl)oxy)-1,2,3,4-tetrahydronaphthalene-2-aminium chloride]
Human LAT1 [1]
  Assay Data: degree of [14C]L-leucine uptake inhibition compared with BCH: A
[3]
  IC50: ≤ 0.9 µM

## Cl.NC1(C(=O)O)CCc2ccc(Oc3ccc([N+](=O)[O-])cc3-c3cccc4ccccc34)cc2C1 (stereo not drawn) [Example 1-69, 2-Carboxy-7-(2-(naphthalen-1-yl)-4-nitrophenoxy)-1,2,3,4-tetrahydronaphthalene-2-aminium chloride]
Human LAT1 [1]
  Assay Data: degree of [14C]L-leucine uptake inhibition compared with BCH: A
[3]
  IC50: ≤ 0.9 µM
